According to patent US5416191A, “Bradykinin antagonists” (Cortech, Inc., priority 1993, dated 1995):
Peptide text beside a SMILES is read from it.

Key:
[1] = target: T1, bradykinin receptor of the B2 class (rat uterus) (Rattus norvegicus, UniProt P25023); experiment: Rat uterus (RU) in vitro, antagonism of bradykinin; settings: for pA2 MONOMER: P.A. = Partial Agonist
T1 construct: concentration effect curves to bradykinin (BK) on rat uterus in vitro; from tissue; host or cells: rat uterus
T1 sequence (P25023 1-396): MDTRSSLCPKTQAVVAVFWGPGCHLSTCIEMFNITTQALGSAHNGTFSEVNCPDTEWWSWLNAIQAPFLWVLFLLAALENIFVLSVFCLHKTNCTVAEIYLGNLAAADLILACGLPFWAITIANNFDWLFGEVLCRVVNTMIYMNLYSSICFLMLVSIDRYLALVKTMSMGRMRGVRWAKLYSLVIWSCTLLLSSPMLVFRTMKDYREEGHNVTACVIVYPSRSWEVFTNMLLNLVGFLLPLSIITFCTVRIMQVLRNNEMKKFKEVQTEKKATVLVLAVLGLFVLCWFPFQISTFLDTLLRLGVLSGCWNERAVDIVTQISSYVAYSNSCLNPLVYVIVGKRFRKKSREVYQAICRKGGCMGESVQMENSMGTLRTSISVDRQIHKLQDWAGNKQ
Procedure, shortened: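 Isolated rat uterus; bradykinin antagonism expressed as pA2, the negative log molar antagonist concentration that halves agonist potency. After the highest antagonist concentration, tissues were washed extensively and percent recovery was recorded.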

[2] = target: T2, bradykinin receptor of the B2 class (guinea-pig ileum) (Cavia porcellus, UniProt O70526); settings: for pA2 GUINEA PIG ILEUM: Table B, Cys position scan, monomers and BMH dimers
T2 sequence (O70526 1-372): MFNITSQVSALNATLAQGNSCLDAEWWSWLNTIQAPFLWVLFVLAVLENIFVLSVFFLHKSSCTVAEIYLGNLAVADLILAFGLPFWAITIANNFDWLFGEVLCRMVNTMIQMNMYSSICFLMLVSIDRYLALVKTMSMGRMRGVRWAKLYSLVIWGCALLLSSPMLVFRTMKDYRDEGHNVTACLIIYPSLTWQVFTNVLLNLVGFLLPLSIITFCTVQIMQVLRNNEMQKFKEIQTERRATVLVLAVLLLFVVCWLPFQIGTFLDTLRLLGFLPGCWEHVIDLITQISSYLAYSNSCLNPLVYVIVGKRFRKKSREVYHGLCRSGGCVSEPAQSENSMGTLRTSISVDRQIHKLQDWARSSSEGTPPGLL

[3] = target: T2, bradykinin receptor of the B2 class (guinea-pig ileum)
[4] = target: T3, bradykinin receptor of the B2 class (rabbit jugular vein) (Oryctolagus cuniculus, UniProt Q28642); experiment: Rabbit jugular vein (RJV) in vitro, antagonism of bradykinin; settings: Table A
T3 construct: from tissue; host or cells: rabbit jugular vein
T3 sequence (Q28642 1-367): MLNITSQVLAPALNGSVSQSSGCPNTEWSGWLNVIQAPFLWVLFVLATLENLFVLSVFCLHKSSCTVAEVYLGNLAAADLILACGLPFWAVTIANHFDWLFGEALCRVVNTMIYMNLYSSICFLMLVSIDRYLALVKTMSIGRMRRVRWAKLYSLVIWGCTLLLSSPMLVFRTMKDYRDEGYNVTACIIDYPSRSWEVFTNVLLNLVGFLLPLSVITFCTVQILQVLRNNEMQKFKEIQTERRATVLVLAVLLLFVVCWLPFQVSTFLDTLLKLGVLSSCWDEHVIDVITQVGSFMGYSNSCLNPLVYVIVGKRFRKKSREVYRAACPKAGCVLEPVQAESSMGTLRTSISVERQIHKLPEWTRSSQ
Method: Thus in vitro studies were performed on standard assay systems, namely, guinea-pig ileum (GPI), rat uterus (RU) and rabbit jugular vein (RJV). […] The potency of each compound was assessed as a pA2 value according to the method of Arunlakshana & Schild, Br. J. Pharmacol. Chemother., 14:48-58 (1959). The PA2 can be defined as the negative logarithm of the molar concentration of the antagonist in the presence of which the potency of the agonist is reduced two-fold, i.e. twice the amount of agonist is required to produce a given response in the presence of, than in the absence of, the antagonist. A high potency of antagonism is indicated by a high PA2 value, i.e., a low concentration of antagonist is effective.
The percentage recovery (% Rec) was also determined for compounds with respect to each assay. Percentage recovery is a measure of the duration of action, the lower the percentage recovery value, the greater the duration of action of the compound.

Compound	pA2 MONOMER ([1]; Table C, rat uterus)	pA2 DIMER ([1]; Table C, rat uterus)	pA2 GUINEA PIG ILEUM [2]	other results
CC(C)C[C@H](NC(=O)[C@@H](Cc1ccccc1)NC(=O)[C@H](CO)NC(=O)[C@H](Cc1ccccc1)NC(=O)CNC(=O)[C@@H]1C[C@@H](O)CN1C(=O)[C@@H]1CCCN1C(=O)[C@H](CCCNC(=N)N)NC(=O)[C@H](N)CCCNC(=N)N)C(=O)N[C@@H](CCCNC(=N)N)C(=O)O [CP-0088, dARG^0 -Arg^1 -Pro^2 -Hyp^3 -Gly^4 -Phe^5 -Ser^6 -(d)Phe^7 -Leu^8 -Arg^9, reference compound] (HELM PEPTIDE1{[dR].R.P.[Hyp].G.F.S.[dF].L.R}$$$$V2.0)	7.4			Kb ([1]; Table A, read-out: RU pA2 (converted)): 39.8 nM; RU % REC ([1]; Table A, recovery after wash): 100%; % REC MONOMER ([1]; Table C, rat uterus): 100%; RAT UTERUS pA2 ([1]; Table F): 7.4; % RECOVERY ([1]; Table F, rat uterus): 100%; GPI % REC ([2]; Table A, recovery after wash, lower = longer duration): 100%; Kb [3]: 251 nM; Kb ([4]; read-out: RJV pA2 (converted)): 3.16 nM; RJV % REC ([4]; recovery after wash): 90%
CC(C)C[C@H](NC(=O)[C@@H](CSC1CC(=O)N(CCCCCCN2C(=O)CC(SC[C@@H](NC(=O)[C@H](CO)NC(=O)[C@H](Cc3ccccc3)NC(=O)CNC(=O)[C@@H]3C[C@@H](O)CN3C(=O)[C@@H]3CCCN3C(=O)[C@H](CCCNC(=N)N)NC(=O)[C@H](N)CCCNC(=N)N)C(=O)N[C@@H](CC(C)C)C(=O)N[C@@H](CCCNC(=N)N)C(=O)O)C2=O)C1=O)NC(=O)[C@H](CO)NC(=O)[C@H](Cc1ccccc1)NC(=O)CNC(=O)[C@@H]1C[C@@H](O)CN1C(=O)[C@@H]1CCCN1C(=O)[C@H](CCCNC(=N)N)NC(=O)[C@H](N)CCCNC(=N)N)C(=O)N[C@@H](CCCNC(=N)N)C(=O)O (some centres unmarked) [CP-0158] (HELM PEPTIDE1{[dR].R.P.[Hyp].G.F.S.[dC].L.R}|PEPTIDE2{[dR].R.P.[Hyp].G.F.S.[dC].L.R}|CHEM1{[O=C1CC([*:1])C(=O)N1CCCCCCN1C(=O)CC([*:2])C1=O]}$PEPTIDE1,CHEM1,8:R3-1:R1|PEPTIDE2,CHEM1,8:R3-1:R2$$$V2.0)		Inactive	Inactive	
CC(C)C[C@H](NC(=O)[C@H](CSC1CC(=O)N(CCCCCCN2C(=O)CC(SC[C@H](NC(=O)[C@H](CO)NC(=O)[C@H](Cc3ccccc3)NC(=O)CNC(=O)[C@@H]3C[C@@H](O)CN3C(=O)[C@@H]3CCCN3C(=O)[C@H](CCCNC(=N)N)NC(=O)[C@H](N)CCCNC(=N)N)C(=O)N[C@@H](CC(C)C)C(=O)N[C@@H](CCCNC(=N)N)C(=O)O)C2=O)C1=O)NC(=O)[C@H](CO)NC(=O)[C@H](Cc1ccccc1)NC(=O)CNC(=O)[C@@H]1C[C@@H](O)CN1C(=O)[C@@H]1CCCN1C(=O)[C@H](CCCNC(=N)N)NC(=O)[C@H](N)CCCNC(=N)N)C(=O)N[C@@H](CCCNC(=N)N)C(=O)O (some centres unmarked) [CP-0157] (HELM PEPTIDE1{[dR].R.P.[Hyp].G.F.S.C.L.R}|PEPTIDE2{[dR].R.P.[Hyp].G.F.S.C.L.R}|CHEM1{[O=C1CC([*:1])C(=O)N1CCCCCCN1C(=O)CC([*:2])C1=O]}$PEPTIDE1,CHEM1,8:R3-1:R1|PEPTIDE2,CHEM1,8:R3-1:R2$$$V2.0)		Inactive	Inactive	
CC(C)C[C@H](NC(=O)[C@@H](Cc1ccccc1)NC(=O)[C@H](CO)NC(=O)[C@H](Cc1ccccc1)NC(=O)[C@H](CS)NC(=O)[C@@H]1C[C@@H](O)CN1C(=O)[C@@H]1CCCN1C(=O)[C@H](CCCNC(=N)N)NC(=O)[C@H](N)CCCNC(=N)N)C(=O)N[C@@H](CCCNC(=N)N)C(=O)O [CP-0136] (HELM PEPTIDE1{[dR].R.P.[Hyp].C.F.S.[dF].L.R}$$$$V2.0)	Inactive		Inactive	
CC(C)C[C@H](NC(=O)[C@H](CS)NC(=O)[C@H](CO)NC(=O)[C@H](Cc1ccccc1)NC(=O)CNC(=O)[C@@H]1C[C@@H](O)CN1C(=O)[C@@H]1CCCN1C(=O)[C@H](CCCNC(=N)N)NC(=O)[C@H](N)CCCNC(=N)N)C(=O)N[C@@H](CCCNC(=N)N)C(=O)O [CP-0145] (HELM PEPTIDE1{[dR].R.P.[Hyp].G.F.S.C.L.R}$$$$V2.0)	Inactive		Inactive	
N=C(N)NCCC[C@@H](N)C(=O)N[C@@H](CCCNC(=N)N)C(=O)N1CCC[C@H]1C(=O)N1C[C@H](O)C[C@H]1C(=O)NCC(=O)N[C@@H](Cc1ccccc1)C(=O)N[C@@H](CO)C(=O)N[C@H](Cc1ccccc1)C(=O)N[C@@H](CS)C(=O)N[C@@H](CCCNC(=N)N)C(=O)O [CP-0147] (HELM PEPTIDE1{[dR].R.P.[Hyp].G.F.S.[dF].C.R}$$$$V2.0)	Inactive		Inactive	
CC(C)C[C@H](NC(=O)[C@@H](CS)NC(=O)[C@H](CO)NC(=O)[C@H](Cc1ccccc1)NC(=O)CNC(=O)[C@@H]1C[C@@H](O)CN1C(=O)[C@@H]1CCCN1C(=O)[C@H](CCCNC(=N)N)NC(=O)[C@H](N)CCCNC(=N)N)C(=O)N[C@@H](CCCNC(=N)N)C(=O)O [CP-0146] (HELM PEPTIDE1{[dR].R.P.[Hyp].G.F.S.[dC].L.R}$$$$V2.0)	Inactive		Inactive	
N=C(N)NCCC[C@@H](N)C(=O)N[C@@H](CCCNC(=N)N)C(=O)N1CCC[C@H]1C(=O)N1C[C@H](O)C[C@H]1C(=O)NCC(=O)N[C@@H](Cc1ccccc1)C(=O)N[C@@H](CO)C(=O)N[C@H](Cc1ccccc1)C(=O)N[C@@H](CSC1CC(=O)N(CCCCCCN2C(=O)CC(SC[C@H](NC(=O)[C@@H](Cc3ccccc3)NC(=O)[C@H](CO)NC(=O)[C@H](Cc3ccccc3)NC(=O)CNC(=O)[C@@H]3C[C@@H](O)CN3C(=O)[C@@H]3CCCN3C(=O)[C@H](CCCNC(=N)N)NC(=O)[C@H](N)CCCNC(=N)N)C(=O)N[C@@H](CCCNC(=N)N)C(=O)O)C2=O)C1=O)C(=O)N[C@@H](CCCNC(=N)N)C(=O)O (some centres unmarked) [CP-0159] (HELM PEPTIDE1{[dR].R.P.[Hyp].G.F.S.[dF].C.R}|PEPTIDE2{[dR].R.P.[Hyp].G.F.S.[dF].C.R}|CHEM1{[O=C1CC([*:1])C(=O)N1CCCCCCN1C(=O)CC([*:2])C1=O]}$PEPTIDE1,CHEM1,9:R3-1:R1|PEPTIDE2,CHEM1,9:R3-1:R2$$$V2.0)		Inactive	Inactive	
CC(C)C[C@H](NC(=O)[C@@H](Cc1ccccc1)NC(=O)[C@H](CO)NC(=O)[C@H](Cc1ccccc1)NC(=O)[C@H](CSC1CC(=O)N(CCCCCCN2C(=O)CC(SC[C@H](NC(=O)[C@@H]3C[C@@H](O)CN3C(=O)[C@@H]3CCCN3C(=O)[C@H](CCCNC(=N)N)NC(=O)[C@H](N)CCCNC(=N)N)C(=O)N[C@@H](Cc3ccccc3)C(=O)N[C@@H](CO)C(=O)N[C@H](Cc3ccccc3)C(=O)N[C@@H](CC(C)C)C(=O)N[C@@H](CCCNC(=N)N)C(=O)O)C2=O)C1=O)NC(=O)[C@@H]1C[C@@H](O)CN1C(=O)[C@@H]1CCCN1C(=O)[C@H](CCCNC(=N)N)NC(=O)[C@H](N)CCCNC(=N)N)C(=O)N[C@@H](CCCNC(=N)N)C(=O)O (some centres unmarked) [CP-0137] (HELM PEPTIDE1{[dR].R.P.[Hyp].C.F.S.[dF].L.R}|PEPTIDE2{[dR].R.P.[Hyp].C.F.S.[dF].L.R}|CHEM1{[O=C1CC([*:1])C(=O)N1CCCCCCN1C(=O)CC([*:2])C1=O]}$PEPTIDE1,CHEM1,5:R3-1:R1|PEPTIDE2,CHEM1,5:R3-1:R2$$$V2.0)		Inactive	Inactive	
